From patent US20140371237A1, “p19Arf, HMGA2 and MDM2 For Use in the Diagnosis and Treatment of Aberrant Cell Growth” (University of Bremen, priority 2010, published 2014)

Tests used:
Assay type in all cases: cell-based, human
[1] = tested on: leiomyoma cells; experiment: Treatment of leiomyoma cells with Tenovin-1, qRT-PCR of p21 and BAX
Protocol: For treatment with Tenovin-1 (Biomol, Hamburg, Germany) cells were plated in Leighton-tubes at a density of 200,000 on 10 mm×50 mm cover slips 24 h before incubation with Tenovin-1. Cells were treated with 3 μM and 10 μM Tenovin-1 for 24 and for 72 h, respectively. As controls cells were cultured in medium 199 supplemented with 20% FCS without Tenovin-1 for 24 and for 72 h, respectively.

[2] = tested on: explants of fibroids and matching myometrium; experiment: Treatment of explants of fibroids and matching myometrium with RITA, qRT-PCR; conditions: explants in short term culture, RITA 10 μM, 72 h
Protocol: For the experiments explants from a leiomyoma with a clonal complex chromosomal rearrangement involving chromosome 10 along with matching myometrium were taken during surgery and immediately transferred into sterile Hank's solution. For treatment with RITA (Biomol, Hamburg, Germany) tissue samples were minced into small pieces of approximately 0.5 cm diameter and incubated in medium 199 supplemented with 20% FCS and RITA (10 μM) for 72 h. As controls tissue explants were incubated in medium 199 supplemented with 20% FCS without RITA for 72 h. Relative quantification of transcription levels was carried out by real-time PCR analyses using the Applied Biosystems 7300 real-time PCR system (Applied Biosystems, Darmstadt, Germany). Commercially available gene expression assays (Applied Biosystems, Darmstadt, Germany) were used for quantification of mRNA of human BAX (Hs00180269_m1), p21 (Hs99999142), β-Gal (Hs01035162) and Ki67 (Hs00606991_m1). HPRT served as endogenous control. All qRT-PCR experiments were done in triplicate.

[3] = tested on: leiomyoma cells; experiment: Treatment of leiomyoma cells with RITA, qRT-PCR; conditions: cells of fibroids, 10 μM RITA, 72 h
Protocol: For treatment with RITA (Biomol, Hamburg, Germany) cells were plated in Leighton-tubes at a density of 200,000 on 10 mm×50 mm cover slips 24 h before incubation with RITA. Cells were treated with 1 μM and 10 μM RITA for 72 h. As controls cells were cultured in medium 199 supplemented with 20% FCS without RITA for 72 h. Relative quantification of transcription levels was carried out by real-time PCR analyses using the Applied Biosystems 7300 real-time PCR system (Applied Biosystems, Darmstadt, Germany). Commercially available gene expression assays (Applied Biosystems, Darmstadt, Germany) were used for quantification of mRNA of human BAX (Hs00180269_m1), p21 (Hs99999142), β-Gal (Hs01035162) and Ki67 (Hs00606991_m1). HPRT served as endogenous control. All qRT-PCR experiments were done in triplicate.

| SMILES | expression of p21 ([1]; 3 μM and 10 μM, 24 h and 72 h, p<0.01 with both concentrations) | expression of BAX ([1]; significant at 24 h with 3 μM and 10 μM (p<0.001) and 72 h with 10 μM (p<0.01)) | expression of BAX [2] | expression of p21 [2] | expression of BAX [3] | expression of Ki-67 [3] | expression of p21 [3] | expression of β-galactosidase [3] |
| --- | --- | --- | --- | --- | --- | --- | --- | --- |
| CC(=O)Nc1ccc(NC(=S)NC(=O)c2ccc(C(C)(C)C)cc2)cc1 [Tenovin-1] | significant increase | significant increase | – | – | – | – | – | – |
| OCc1ccc(-c2ccc(-c3ccc(CO)s3)o2)s1 [RITA, 2,5-bis-(5-Hydroxymethyl-2-thienyl)-furan] | – | – | significant increase | significant increase | significant increase | decrease | significant increase | significant increase |
